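1) Cells in 96-well plates. 2) Compound, 48 h, 5 concentrations. 3) Linear interpolation between surrounding doses. 4) Unreached endpoint = highest concentration. Abbreviation: GI50, concentration required for 50% inhibition of growth.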 Calls of active or inactive are those of the source. Rule as the data show it: active = GI50 up to about 1.1 µM and inactive = higher.
Columns and labels:
Assay in all cases: NCI tumour cell line growth inhibition, 48 h
UO-31 = test system: UO-31
OVCAR-8 = test system: OVCAR-8
ACHN = test system: ACHN
HCT-15 = test system: HCT-15
SK-MEL-2 = test system: SK-MEL-2
KM12 = test system: KM12
UACC-257 = test system: UACC-257
SK-MEL-28 = test system: SK-MEL-28
CAKI-1 = test system: CAKI-1
K562 = test system: K562
TK-10 = test system: TK-10
MOLT-4 = test system: MOLT-4
HL-60 = test system: HL-60
786-0 = test system: 786-0
EKVX = test system: EKVX

Row | Structure (SMILES) | GI50 (UO-31) | GI50 (OVCAR-8) | GI50 (ACHN) | GI50 (HCT-15) [µM] | GI50 (SK-MEL-2) | GI50 (KM12) | GI50 (UACC-257) | GI50 (SK-MEL-28) | GI50 (CAKI-1) | GI50 (K562) | GI50 (TK-10) | GI50 (MOLT-4) | GI50 (HL-60) | GI50 (786-0) | GI50 (EKVX)
1 | CCOC(=O)C1=C(Nc2ccccc2)SCC1=O | > 100 µM (inactive) | > 100 µM (inactive) | > 100 µM (inactive) | > 100 | > 100 µM (inactive) | > 100 µM (inactive) | > 100 µM (inactive) | > 100 µM (inactive) | > 100 µM (inactive) | > 100 µM (inactive) | > 100 µM (inactive) | > 100 µM (inactive) | > 100 µM (inactive) | > 100 µM (inactive) | –
2 | CC(C)(C)C(=O)ON1N=NC2C3CC(OCc4ccccc4)(OCc4ccccc4)C(O3)C21 (stereo unspecified) | 22.4 µM (inactive) | – | 27.7 µM (inactive) | 20.1 | 19.1 µM (inactive) | 23.6 µM (inactive) | 13.7 µM (inactive) | 19.1 µM (inactive) | 31 µM (inactive) | 11.7 µM (inactive) | – | 3.41 µM (inactive) | 3.79 µM (inactive) | 18.5 µM (inactive) | –
3 | O=Cc1ccccc1OCCOc1cc(OCCOc2ccccc2C=O)c(OCCOc2ccccc2C=O)cc1OCCOc1ccccc1C=O | > 52.8 µM (inactive) | 47.1 µM (inactive) | 47.3 µM (inactive) | > 66.2 | 44.9 µM (inactive) | > 100 µM (inactive) | > 100 µM (inactive) | > 100 µM (inactive) | > 70.6 µM (inactive) | 50.4 µM (inactive) | 42.6 µM (inactive) | > 45.1 µM (inactive) | > 78.2 µM (inactive) | 24.2 µM (inactive) | 32.1 µM (inactive)
4 | O=C(CCCCCCCCCCc1ccccc1)C1=C(O)CC(O)CC1=O (stereo unspecified) | 60.5 µM (inactive) | 49.7 µM (inactive) | 58.5 µM (inactive) | – | 25.4 µM (inactive) | 38.4 µM (inactive) | 63.1 µM (inactive) | 72.4 µM (inactive) | 94.4 µM (inactive) | 30.5 µM (inactive) | 64.6 µM (inactive) | 40.5 µM (inactive) | 20.7 µM (inactive) | 58.1 µM (inactive) | 81.1 µM (inactive)
5 | Cc1nc2c(c(=O)[nH]1)S/C(=C(/C#N)c1nc3ccccc3[nH]1)N2c1ccccc1 | > 100 µM (inactive) | > 100 µM (inactive) | > 100 µM (inactive) | > 100 | > 100 µM (inactive) | > 100 µM (inactive) | > 100 µM (inactive) | > 100 µM (inactive) | > 100 µM (inactive) | > 100 µM (inactive) | > 100 µM (inactive) | > 100 µM (inactive) | > 100 µM (inactive) | – | > 100 µM (inactive)
6 | CCN(CC)C(=O)Cc1[nH][nH]c(=O)c1C(=O)N(CC)CC | > 100 µM (inactive) | > 100 µM (inactive) | > 100 µM (inactive) | > 100 | > 100 µM (inactive) | > 100 µM (inactive) | > 100 µM (inactive) | > 100 µM (inactive) | – | > 100 µM (inactive) | > 100 µM (inactive) | > 100 µM (inactive) | > 100 µM (inactive) | > 100 µM (inactive) | > 100 µM (inactive)
7 | CC(=O)CC(=O)/C=C/c1cccs1 | 93.3 µM (inactive) | > 100 µM (inactive) | 97.3 µM (inactive) | 47.8 | > 100 µM (inactive) | 55.2 µM (inactive) | > 100 µM (inactive) | – | > 100 µM (inactive) | 47.1 µM (inactive) | > 100 µM (inactive) | > 100 µM (inactive) | 27.9 µM (inactive) | 99.5 µM (inactive) | > 100 µM (inactive)
8 | CN/N=C(\C(=O)Nc1ccc(C)c(C)c1)C(C(=O)OC)c1nc2ccc([N+](=O)[O-])cc2nc1O (stereo unspecified) | > 100 µM (inactive) | > 100 µM (inactive) | > 100 µM (inactive) | 85.1 | > 100 µM (inactive) | 94.4 µM (inactive) | > 100 µM (inactive) | > 100 µM (inactive) | > 100 µM (inactive) | > 100 µM (inactive) | > 100 µM (inactive) | > 100 µM (inactive) | 50.9 µM (inactive) | – | 60.5 µM (inactive)
9 | Cc1ccc(NP(=O)(Oc2ccccc2)N(CCCl)CCCl)cc1 (stereo unspecified) | 76.4 µM (inactive) | 99.1 µM (inactive) | 34.6 µM (inactive) | 45.2 | 41.6 µM (inactive) | 91 µM (inactive) | 28.6 µM (inactive) | > 100 µM (inactive) | > 100 µM (inactive) | > 100 µM (inactive) | > 100 µM (inactive) | 9.04 µM (inactive) | 44 µM (inactive) | – | > 100 µM (inactive)
10 | COC(=O)CC1N/C(=N\C#N)N(CCc2c[nH]c3ccccc23)C1=O (stereo unspecified) | 75.9 µM (inactive) | > 100 µM (inactive) | > 100 µM (inactive) | > 100 | – | > 100 µM (inactive) | > 100 µM (inactive) | > 100 µM (inactive) | – | > 100 µM (inactive) | > 100 µM (inactive) | > 100 µM (inactive) | > 100 µM (inactive) | > 100 µM (inactive) | 83 µM (inactive)
11 | O=C(CC1(O)C(=O)Nc2ccccc21)c1ccc(O)cc1O (stereo unspecified) | > 100 µM (inactive) | > 100 µM (inactive) | > 100 µM (inactive) | > 100 | > 100 µM (inactive) | – | > 100 µM (inactive) | > 100 µM (inactive) | > 100 µM (inactive) | > 100 µM (inactive) | > 100 µM (inactive) | > 100 µM (inactive) | > 100 µM (inactive) | > 100 µM (inactive) | > 100 µM (inactive)
12 | COc1ccc(/C=C/C(=O)C(C)C)cc1 | 80.2 µM (inactive) | 34.8 µM (inactive) | 50.9 µM (inactive) | 27.2 | 27.7 µM (inactive) | 33.6 µM (inactive) | 63.7 µM (inactive) | > 100 µM (inactive) | 44.8 µM (inactive) | 32.8 µM (inactive) | 92 µM (inactive) | 33.2 µM (inactive) | 22.9 µM (inactive) | 71.3 µM (inactive) | 45.3 µM (inactive)
13 | CC(=O)NC(CCCCN(Cc1ccccc1)C(=O)NCCCl)C(=O)NCc1ccccc1 (stereo unspecified) | > 100 µM (inactive) | > 100 µM (inactive) | > 100 µM (inactive) | > 100 | > 100 µM (inactive) | > 100 µM (inactive) | > 100 µM (inactive) | > 100 µM (inactive) | > 100 µM (inactive) | > 100 µM (inactive) | – | > 100 µM (inactive) | > 100 µM (inactive) | > 100 µM (inactive) | > 100 µM (inactive)
14 | Nc1ncnc2c1ncn2C1CC(OC2CCCCO2)C(CO)O1 (stereo unspecified) | > 100 µM (inactive) | > 100 µM (inactive) | > 100 µM (inactive) | > 100 | > 100 µM (inactive) | > 100 µM (inactive) | > 100 µM (inactive) | > 100 µM (inactive) | – | > 100 µM (inactive) | > 100 µM (inactive) | 61.8 µM (inactive) | > 100 µM (inactive) | > 100 µM (inactive) | 67.5 µM (inactive)
15 | O=C1Nc2cc([N+](=O)[O-])c(Br)cc2C1=O | 18.5 µM (inactive) | 16.4 µM (inactive) | 18.2 µM (inactive) | 18.9 | 26.7 µM (inactive) | 51.4 µM (inactive) | 18 µM (inactive) | 21.3 µM (inactive) | 19.1 µM (inactive) | 18.1 µM (inactive) | > 100 µM (inactive) | 10.4 µM (inactive) | – | 18.5 µM (inactive) | 22.4 µM (inactive)
16 | CCOC(=O)CN1C(=O)c2cccc3cc([N+](=O)[O-])cc(c23)C1=O | 14 µM (inactive) | 1.78 µM (inactive) | 10.1 µM (inactive) | 1.65 | 1.17 µM (inactive) | 2.52 µM (inactive) | 2.51 µM (inactive) | 2.85 µM (inactive) | – | 0.459 µM (active) | 17 µM (inactive) | 0.373 µM (active) | 0.637 µM (active) | 13.4 µM (inactive) | 15.2 µM (inactive)
17 | CCOc1cccc2c1N[S@@](=O)S2 | 98.4 µM (inactive) | – | > 100 µM (inactive) | > 100 | > 100 µM (inactive) | > 100 µM (inactive) | > 100 µM (inactive) | > 100 µM (inactive) | > 100 µM (inactive) | 53.3 µM (inactive) | > 100 µM (inactive) | 55.3 µM (inactive) | > 100 µM (inactive) | > 100 µM (inactive) | > 100 µM (inactive)
18 | Cc1c2cc[n+](COC(=O)c3ccccc3)cc2c(C)c2c1[nH]c1ccccc12 | 2.03 µM (inactive) | 0.551 µM (active) | 0.532 µM (active) | – | – | 0.533 µM (active) | 1.52 µM (inactive) | 1.64 µM (inactive) | 1.4 µM (inactive) | 0.388 µM (active) | 1.58 µM (inactive) | 0.255 µM (active) | 1.1 µM (active) | 0.778 µM (active) | –
19 | O=c1cc(-c2ccccc2)[nH]c2cc(F)cc(F)c12 | 37 µM (inactive) | 57.5 µM (inactive) | 50.9 µM (inactive) | 6.59 | 18.2 µM (inactive) | 4.56 µM (inactive) | 40.1 µM (inactive) | 27.2 µM (inactive) | 21.8 µM (inactive) | 11.9 µM (inactive) | 63.7 µM (inactive) | 75.5 µM (inactive) | 21.8 µM (inactive) | 52.4 µM (inactive) | –
20 | CN[C@@H](C)[C@H](N)c1ccccc1 | > 100 µM (inactive) | > 100 µM (inactive) | > 100 µM (inactive) | > 100 | – | > 100 µM (inactive) | > 100 µM (inactive) | > 100 µM (inactive) | > 100 µM (inactive) | > 100 µM (inactive) | > 100 µM (inactive) | > 100 µM (inactive) | – | > 100 µM (inactive) | > 100 µM (inactive)

Source: ChEMBL document CHEMBL1201862, “PubChem BioAssay data set” (2004)
